Where two headings read alike, the source gives them in different places.
Test system: MTB
Assay type: cell-based, Mycobacterium tuberculosis

In the case of `CCCCCCCCCC(=O)O[C@@H]1[C@H](OC)[C@@H]([C@@H](O[C@H]2OC(C(=O)N[C@H]3CCC[C@@H](C)NC3=O)=C[C@H](O)[C@@H]2O)C(N)=O)O[C@H]1n1ccc(=O)[nH]c1=O` [SQ641], the Frequency of mutation is reported as “zero”, the Resistant colonies is reported as “no colonies” and the Frequency of mutation (second experiment, 8 μg/ml SQ641, 1 μg/ml RIF) is reported as “zero”.

Source: patent US20090281054A1, “COMPOSITIONS AND METHODS COMPRISING CAPURAMYCIN ANALOGUES” (priority 2008, published 2009)
